≈ marks a conversion by molar mass, not a printed value.
Legend:
Assay in all cases: in vitro antibacterial activity, minimal inhibitory concentration
Format in all cases: cell-based
Pseudomonas UI 18 = settings: UI18; Pseudomonas UI 18, in vitro
From the text: (§1) The compounds of the invention are new chemical compounds that are used as pharmacological agents and especially as broad spectrum antibacterial agents. They are active in vitro against strains of both gram-positive and gram-negative bacteria.
(§2) Minimal Inhibitory Concentration (μg/ml)

Klebs. pneu. = system: Klebs. pneu.
From the text: as §1, §2

Staph. aureus S18733 = settings: Staphylococcus aureus
From the text: as §1, §2

E. coli Vogel = settings: Escherichia coli
From the text: as §1, §2

Pseudomonas #28 = settings: Pseudomonas #28, in vitro; read-out: Minimal Inhibitory Concentration
From the text: as §1, §2

Entero. cloacae = settings: Enterobacter cloacae
From the text: as §1, §2

E. coli Brig = settings: Escherichia coli
From the text: as §1, §2

Serr. marces. = system: Serr. marces.
From the text: as §1, §2

Strep. fec. = system: Strep. fec.
From the text: as §1, §2

Prot. vulg. = system: Prot. vulg.
From the text: as §1, §2

Pseudomonas BRK 12-4-4 = settings: BRK1244; Pseudomonas BRK 12-4-4, in vitro
From the text: as §1, §2

Staph. aureus UC-76 = settings: Staphylococcus aureus, UC76; Staph. aureus UC-76, in vitro
From the text: as §1, §2

Row | Compound | MIC (Pseudomonas UI 18) [µg/mL] | MIC (Klebs. pneu.) [µg/mL] | MIC (Staph. aureus S18733) [µg/mL] | MIC (E. coli Vogel) [µg/mL] | MIC (Pseudomonas #28) [µg/mL] | MIC (Entero. cloacae) [µg/mL] | MIC (E. coli Brig) [µg/mL] | MIC (Serr. marces.) [µg/mL] | MIC (Strep. fec.) [µg/mL] | MIC (Prot. vulg.) [µg/mL] | MIC (Pseudomonas BRK 12-4-4) [µg/mL] | MIC (Staph. aureus UC-76) [µg/mL]
1 | CC(=O)N[C@H](C)C(=O)Nc1ccc(-c2ncc(C(=O)N[C@@H](C(=O)NC3C(=O)N4C(C(=O)O)=C(CSc5nnnn5C)CSC34)c3ccccc3)c(O)n2)cc1 (stereo partly drawn) [Example 25, N-[2-[4-(N-Acetyl-D-alanylamino)phenyl]-4-hydroxy-5-pyrimidinylcarbonyl]-7-[D-2-amino-2-phenylacetamido]-3-[[(1-methyl-1H-tetrazol-5-yl)thio]methyl]-3-cephem-4-carboxylic acid] | 6.3 (≈ 8 µM) | 3.1 (≈ 3.93 µM) | 6.3 (≈ 8 µM) | 3.1 (≈ 3.93 µM) | 3.1 (≈ 3.93 µM) | 6.3 (≈ 8 µM) | 6.3 (≈ 8 µM) | 50 (≈ 63.5 µM) | > 50 | 12.5 (≈ 15.9 µM) | 6.3 (≈ 8 µM) | 1.6 (≈ 2.03 µM)
2 | C[C@@H](N)C(=O)Nc1ccc(-c2ncc(C(=O)N[C@@H](C(=O)NC3C(=O)N4C(C(=O)O)=C(CSc5nnnn5CC(=O)O)CSC34)c3ccccc3)c(O)n2)cc1 (stereo partly drawn) [Example 38, N-[2-[4-(D-Alanylamino)phenyl]-4-hydroxy-5-pyrimidinylcarbonyl]-7-[D-2-amino-2-phenylacetamido]-3-[[(1-carboxymethyl-1H-tetrazol-5-yl)thio]-methyl]-3-cephem-4-carboxylic acid] | 3.1 (≈ 3.92 µM) | 6.3 (≈ 7.98 µM) | 12.5 (≈ 15.8 µM) | 0.8 (≈ 1.01 µM) | 3.1 (≈ 3.92 µM) | 6.3 (≈ 7.98 µM) | 6.3 (≈ 7.98 µM) | 25 (≈ 31.7 µM) | > 50 | 0.8 (≈ 1.01 µM) | 3.1 (≈ 3.92 µM) | 6.3 (≈ 7.98 µM)
3 | CC(=O)NC(C)C(=O)Nc1ccc(-c2ncc(C(=O)N[C@@H](C(=O)NC3C(=O)N4C(C(=O)O)=C(CSc5nnc(C)s5)CSC34)c3ccccc3)c(O)n2)cc1 (mixture of isomers) [Example 40, N-[2-[4-(N-Acetyl-DL-alanylamino)phenyl]-4-hydroxy-5-pyrimidinylcarbonyl]-7-[D-2-amino-2-phenylacetamido]-3-[[(5-methyl-1,3,4-thiadiazoyl-2-thio]methyl]-3-cephem-4-carboxylic acid] | 6.3 | 3.1 | 3.1 | 3.1 | 12.5 | 25 | 12.5 | 50 | 25 | 50 | 12.5 | 0.4
4 | CC(=O)NC(CC(C)C)C(=O)Nc1ccc(-c2ncc(C(=O)N[C@@H](C(=O)N[C@@H]3C(=O)N4C(C(=O)O)=C(COC(C)=O)CS[C@H]34)c3ccccc3)c(O)n2)cc1 (mixture of isomers) [Example 4, N-[2-[4-(N-Acetyl-DL-leucylamino)phenyl]-4-hydroxy-5-pyrimidinylcarbonyl]-7-[D-2-amino-2-phenylacetamido]-3-acetoxymethyl-3-cephem-4-carboxylic acid] | 12.5 | 25 | 6.3 | 6.3 | 12.5 | 25 | 25 | > 50 | 50 | 25 | 12.5 | 1.6
5 | CC(=O)NC(C)C(=O)Nc1ccc(-c2ncc(C(=O)N[C@@H](C(=O)NC3C(=O)N4C(C(=O)O)=C(CSc5nnnn5C)CSC34)c3ccc(O)cc3)c(O)n2)cc1 (mixture of isomers) [Example 32, N-[2-[4-(N-Acetyl-DL-alanylamino)phenyl]-4-hydroxy-5-pyrimidinylcarbonyl]-7-[D-2-amino-2-(4-hydroxyphenyl)acetamido]-3-[[(1-methyl-1H-tetrazol-5-yl)thio]methyl]-3-cephem-4-carboxylic acid] | 6.3 | 1.6 | 6.3 | 1.6 | 3.1 | 6.3 | 6.3 | > 50 | 50 | 12.5 | 6.3 | 3.1
6 | CC(=O)NC(C)C(=O)Nc1ccc(-c2ncc(C(=O)N[C@@H](C(=O)NC3C(=O)N4C(C(=O)O)=C(CSc5nnnn5C)CSC34)c3ccccc3)c(O)n2)cc1 (mixture of isomers) [Example 24, N-[2-[4-(N-Acetyl-DL-alanylamino)phenyl]-4-hydroxy-5-pyrimidinylcarbonyl]-7-[D-2-amino-2-phenylacetamido]-3-[[(1-methyl-1H-tetrazol-5-yl)thio]methyl]-3-cephem-4-carboxylic acid] | 6.3 | 1.6 | 3.1 | 3.1 | 6.3 | 12.5 | 12.5 | 50 | 50 | 25 | 12.5 | 1.6
7 | CC(=O)NCC(=O)Nc1ccc(-c2ncc(C(=O)N[C@@H](C(=O)NC3C(=O)N4C(C(=O)O)=C(CSc5nnc(C)s5)CSC34)c3ccccc3)c(O)n2)cc1 (stereo partly drawn) [Example 39, N-[2-[4-(N-Acetylglycylamino)phenyl]-4-hydroxy-5-pyrimidinylcarbonyl]-7-[D-2-amino-2-phenylacetamido]-3-[[(5-methyl-1,3,4-thiadiazol-2-yl)thio]methyl]-3-cephem-4-carboxylic acid] | 25 (≈ 31.7 µM) | 1.6 (≈ 2.03 µM) | 3.1 (≈ 3.92 µM) | 1.6 (≈ 2.03 µM) | 12.5 (≈ 15.8 µM) | 6.3 (≈ 7.98 µM) | 12.5 (≈ 15.8 µM) | 50 (≈ 63.3 µM) | 50 (≈ 63.3 µM) | 6.3 (≈ 7.98 µM) | 25 (≈ 31.7 µM) | 0.8 (≈ 1.01 µM)
8 | CC(=O)N[C@@H](C)C(=O)Nc1ccc(-c2ncc(C(=O)N[C@@H](C(=O)N[C@@H]3C(=O)N4C(C(=O)O)=C(COC(C)=O)CS[C@H]34)c3ccccc3)c(O)n2)cc1 [Example 10, N-[2-[4-(N-Acetyl-L-alanylamino)phenyl]-4-hydroxy-5-pyrimidinylcarbonyl]-7-[D-2-amino-2-phenylacetamido]-3-acetoxy-methyl-3-cephem-4-carboxylic acid] | 6.3 (≈ 8.61 µM) | 25 (≈ 34.2 µM) | 6.3 (≈ 8.61 µM) | 12.5 (≈ 17.1 µM) | 6.3 (≈ 8.61 µM) | 50 (≈ 68.3 µM) | 25 (≈ 34.2 µM) | > 50 | 50 (≈ 68.3 µM) | 25 (≈ 34.2 µM) | 12.5 (≈ 17.1 µM) | 3.1 (≈ 4.24 µM)
9 | CC(=O)NC(C)C(=O)Nc1ccc(-c2ncc(C(=O)N[C@@H](C(=O)N[C@@H]3C(=O)N4C(C(=O)O)=C(COC(C)=O)CS[C@H]34)c3ccccc3)c(O)n2)cc1 (mixture of isomers) [Example 8, N-[2-[4-(N-Acetyl-DL-alanylamino)phenyl]-4-hydroxy-5-pyrimidinylcarbonyl]-7-[D-2-amino-2-phenylacetamido]-3-acetoxymethyl-3-cephem-4-carboxylic acid] | 6.3 | 6.3 | 1.6 | 6.3 | 6.3 | 50 | 25 | > 50 | 50 | 50 | 12.5 | 1.6
